This note sets out measurements from US20150141381A1, “TETRACYCLINE COMPOUNDS HAVING TARGET THERAPEUTIC ACTIVITIES” (Paratek Pharmaceuticals, Inc., priority 2001, published 2015).

One data set in a line: in vitro. The class given is cell-based. Particulars: African green monkey (COS-1) and Chinese hamster (CHO-K1). As to the method:
COS-1 and CHO-K1 cell suspensions were prepared, seeded into 96-well tissue culture treated black-walled microtiter plates (density determined by cell line), and incubated overnight at 37° C., in 5% CO2 and approximately 95% humidity. The following day, serial dilutions of drug were prepared under sterile conditions and transferred to cell plates. Cell/Drug plates were incubated under the above conditions for 24 hours. Following the incubation period, media/drug was aspirated and 50 μl of Resazurin (0.042 mg/ml in PBS w/Ca and Mg) was added. The plates were then incubated under the above conditions for 2 hours and then in the dark at room temperature for an additional 30 minutes. Fluorescence measurements were taken (excitation 535 nm, emission 590 nm).

Data set [1] has as its system MMP-9 production from PMA stimulated THP-1 cells. The data set can be described thus: Assay for MMP-9 Production from PMA Stimulated THP-1 Cells. The class given is cell-based, human. Particulars: PMA 10 nM, 24 hours, MMP-9 ELISA of conditioned media. As to the method: Cultures of human monocyte THP-1 cells were suspended at 1×10^6 cells/mL in RPMI-1640 supplemented with 10% FCS. Cell suspensions (90 μL per well) were seeded into 96-well microtiter plates, and incubated for 30 minutes at 37° C., in 5% CO2 and approximately 95% humidity. Serial dilutions of test drug are prepared at 2× final concentration under sterile conditions and 100 μL was transferred to cell plates. Plates were then incubated as above for 15 minutes. PMA (phorbol-12-myristate-13-acetate) was diluted in media to 20× final concentration. 10 μL of diluted PMA was added to the cell plate, resulting in a final concentration of 10 nM. Plates were then incubated again as above for 24 hours. After 24 hours, 100 μL of conditioned media was tested for MMP-9 protein levels using the Quantikine® Human MMP-9 (total) Immunoassay from R&D Systems. MMP-9 levels were calculated based on a standard curve of purified MMP-9 dilution samples run simultaneously in the ELISA plate. This assay detected both the 92 kDa pro- and 82 kDa active forms of MMP-9.

SMILES strings stand for the structures. Bounds are passed on as bounds.

In general, IC50 refers to the point on the concentration scale where inhibition reaches its midpoint. Regarding `CN(C)c1ccc(O)c2c1CC1CC3[C@H](N(C)C)C(O)=C(C(N)=O)C(=O)C3(O)C(O)=C1C2=O` (some centres unmarked) [minocycline, Minocycline], the IC50 at 24 h in “in vitro” was over 25 µg/mL.

Take `CN(C)[C@@H]1C(O)=C(C(N)=O)C(=O)[C@@]2(O)C(O)=C3C(=O)c4c(O)ccc(N5CCOCC5)c4C[C@H]3C[C@@H]12` [drawing 4289]: in data set [1], the “MMP-9 (inhibition of MMP-9 production)” value turned out to be 2.

In the case of `CN(C)[C@@H]1C(O)=C(C(N)=O)C(=O)[C@@]2(O)C(O)=C3C(=O)c4c(O)ccc(-c5ccc(NC(=O)c6ccno6)cc5)c4C[C@H]3C[C@@H]12` [drawing 4097], the “MMP-9 (inhibition of MMP-9 production)” value in data set [1] worked out at 3.

In “in vitro”, `CC1c2cccc(O)c2C(=O)C2=C(O)C3(O)C(=O)C(C(N)=O)=C(O)C(N(C)C)C3C(O)C21` (centres unmarked) [doxycycline, Doxycycline] displayed an IC50 at 24 h of over 25 µg/mL.

As for `CN(C)CCC(=O)c1ccc(O)c2c1C[C@H]1C[C@H]3[C@H](N(C)C)C(O)=C(C(N)=O)C(=O)[C@@]3(O)C(O)=C1C2=O` [drawing 4022], the “MMP-9 (inhibition of MMP-9 production)” value in data set [1] came to 3.
